Experimental data published in PMC12257394, “Design, Synthesis, and Biological Evaluation of Ferrocenyl–Cyclo-(Gly‑L‑Pro) Hybrids Sensitizing Multidrug-Resistant Cancer Cells to Anticancer Agents” (ACS Medicinal Chemistry Letters, 2025).

Experiments:
Format in all cases: cell-based, human
MRC-5 fibroblasts = experiment: Neutral red uptake viability assay, MRC-5; settings: for survival rate: MRC-5, 10 μM, 72 h exposure, n = 3, ± SD
Description: (§1) The normal lung fibroblast MRC-5 and colorectal adenocarcinoma SW620 cell lines used in this experiment were purchased from American Type Culture Collection (USA) via LGC […]
(§2) Standards. Multidrug-resistant variants of SW620 cells were developed in our laboratory as described previously.10, 11 All cells were cultured under standard conditions (37°C, 5% CO2, 100% humidity) in high-glucose DMEM supplemented with GlutaMaxTM, HEPES (ThermoFisher Scientific, USA), and 10% fetal bovine serum (EURx, Poland). Cells were routinely tested for potential Mycoplasma contamination using the MycoProbe Mycoplasma Detection kit (R&D System, USA).
(§3) In total, 104 cells in 100 µL of complete medium were plated per well of a 96-well plate and left overnight to allow cells to adhere to the surface. Then, the cells were exposed to a desired concentration of tested compound(s). Stock solutions were prepared in DMSO and used immediately. The final DMSO concentration was constant and nontoxic (0.1% v/v). After 70-h incubation, neutral red was added to the final concentration of 1 mM. After another 2 h, the medium was aspirated, and cells were washed twice with PBS. Dye was released using 100 µL of a solubilizer (1% acetic acid in 50% ethanol) on an orbital shaker (10 min). Absorbance was read at 540 nm using EnVision Multilabel Plate Reader (Perkin Elmer, USA). Results were expressed as % of control. The IC50 parameters were calculated using GraphPad Prism version 10 (GraphPad Software, Boston, Massachusetts USA). […]
(§4) All experiments were performed in triplicate (n = 3).

[1] = tested on: SW620D cells (doxorubicin-resistant); experiment: Neutral red uptake viability assay, SW620D; settings: 72 h; for survival rate: n = 3, ± SD; for IC50: n = 3, read-out: Cytotoxic activity IC50 (95% CI)
Description: (§5) In general, compounds 4a–e exerted little or no cytotoxic effect on either SW620 or multidrug-resistant sublines even at 10 μM, with the remarkable exception of SW620C (cisplatin-selected variant of SW620) cells, which turned out to be relatively susceptible toward ferrocenyl 4a–c. […] This trend may reflect steric or electronic contributions to cellular uptake or interaction with intracellular targets. […] However, since E/Z isomeric data are currently available only for compound 4c, this hypothesis requires validation. To quantify this effect, IC50 values were determined (Table ). […]
as §1, §2
(§6) In total, 104 cells in 100 µL of complete medium were plated per well of a 96-well plate and left overnight to allow cells to adhere to the surface. Then, the cells were exposed to a desired concentration of tested compound(s). Stock solutions were prepared in DMSO and used immediately. The final DMSO concentration was constant and nontoxic (0.1% v/v). After 70-h incubation, neutral red was added to the final concentration of 1 mM. After another 2 h, the medium was aspirated, and cells were washed twice with PBS. Dye was released using 100 µL of a solubilizer (1% acetic acid in 50% ethanol) on an orbital shaker (10 min). Absorbance was read at 540 nm using EnVision Multilabel Plate Reader (Perkin Elmer, USA). Results were expressed as % of control. The IC50 parameters were calculated using GraphPad Prism version 10 (GraphPad Software, Boston, Massachusetts USA).
(§7) The enhancement of reversal potency (ERP) value determination
(§8) For MDR reversal assays, cytotoxic agents were co-administered with compounds 4a–4e at equimolar concentrations in a range of 10 nM to 100 µM. IC₅₀ values were determined in ABCB1-overexpressing SW620 cell line variants. The enhancement of reversal potency (ERP) was calculated using the following formula: ERP = IC₅₀(drug)MDR / IC₅₀(drug + compound)MDR. All experiments were performed in triplicate (n = 3).

[2] = tested on: SW620M cells (methotrexate-resistant); experiment: Neutral red uptake viability assay, SW620M; settings: 72 h; for survival rate: n = 3, ± SD; for IC50: n = 3, read-out: Cytotoxic activity IC50 (95% CI)
Description: as §5, §1, §2, §3, §4

[3] = tested on: SW620V cells (vincristine-resistant); experiment: Neutral red uptake viability assay, SW620V; settings: 72 h; for survival rate: n = 3, ± SD; for IC50: n = 3, read-out: Cytotoxic activity IC50 (95% CI)
Description: as §5, §1, §2, §6, §7, §8

[4] = tested on: SW620Mito cells (mitoxantrone-resistant); experiment: Neutral red uptake viability assay, SW620Mito; settings: 72 h; for survival rate: n = 3, ± SD; for IC50: n = 3, read-out: Cytotoxic activity IC50 (95% CI)
Description: as §5, §1, §2, §3, §4

[5] = tested on: ABCB1-overexpressing SW620E cells; experiment: MDR reversal assay (ERP), SW620E; settings: for ERP value, etoposide + compound: SW620E (xlsx); for ERP = IC50(drug)MDR/IC50(drug+4)MDR: etoposide, SW620E
From the text: (§9) We investigated the potency of 4a–e to inhibit ABC transporters (ABCB1, ABCC1, and ABCG2) by determining their enhancement of reversal potency (ERP) values. ERP represents fold changes in the IC50 values of anticancer drugs in multidrug-resistant cancer sublines (ABCB1-overexpressing SW620D, SW620E, and SW620V; ABCC1-overexpressing SW620M; ABCG2-overexpressing SW620C and SW620Mito) exposed to a combination of the investigated compounds and anticancer agents at equimolar concentrations, compared with values obtained with drugs alone (Tables S2 and S3 and Figure ).
as §2, §6, §7, §8

[6] = tested on: ABCB1-overexpressing SW620V cells; experiment: MDR reversal assay (ERP), SW620V; settings: for ERP value, vincristine + compound: SW620V (xlsx); for ERP = IC50(drug)MDR/IC50(drug+4)MDR: vincristine, SW620V
From the text: as §9, §2, §6, §7, §8

[7] = tested on: ABCC1-overexpressing SW620M cells; experiment: MDR reversal assay (ERP), SW620M; settings: for ERP value, methotrexate + compound: SW620M (xlsx); for ERP = IC50(drug)MDR/IC50(drug+4)MDR: methotrexate, SW620M
From the text: as §9, §2, §6, §7, §8

[8] = tested on: ABCG2-overexpressing SW620C cells; experiment: MDR reversal assay (ERP), SW620C; settings: for ERP value, cisplatin + compound: SW620C (xlsx); for ERP = IC50(drug)MDR/IC50(drug+4)MDR: cisplatin, SW620C
From the text: as §9, §2, §6, §7, §8

SW620 cells = experiment: Synergy determination (Bliss model, SynergyFinder), SW620;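 also: score below −10 means likely antagonism and −10 to 10 means additive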
From the text: (§10) In an ideal setting, the effect of cell exposure to a combination of a chemotherapeutic and an MDR inhibitor should be synergistic. […] The highest synergy scores identified an optimal concentration range where the combination exerted its maximal effect. […] In cisplatin-resistant SW620C cells, the low or lack of synergy observed for most compounds may be due to the additive effects of cisplatin and 4 rather than a true synergistic interaction. […]
(§11) To evaluate the potential interactions between putative ABC inhibitors and anticancer drugs, we utilized the Bliss independence model, as implemented in the SynergyFinder web application.13, 14 Synergy scores and the most synergistic area scores were calculated based on the normalized dose–response matrices. A synergy score below −10 indicates likely […]
(§12) above 10 is indicative of likely synergistic interactions.
(§13) All experiments were performed at least three times, and the data were statistically analyzed

SW620C cells = experiment: Synergy determination (Bliss model, SynergyFinder), SW620C; settings: drug cisplatin + additive; for synergy score: Bliss model
From the text: as §10, §11, §12, §13

SW620E cells = experiment: Synergy determination (Bliss model, SynergyFinder), SW620E; settings: drug etoposide + additive; for synergy score: Bliss model
From the text: as §10, §11, §12, §13

Row | SMILES | survival rate (MRC-5 fibroblasts) [%] | survival rate ([1]; 1 μM) [%] | survival rate ([1]; 10 μM) [%] | survival rate ([2]; 1 μM) [%] | survival rate ([2]; 10 μM) [%] | survival rate ([3]; 1 μM) [%] | survival rate ([3]; 10 μM) [%] | survival rate ([4]; 1 μM) [%] | survival rate ([4]; 10 μM) [%] | ERP value, etoposide + compound [5] | ERP = IC50(drug)MDR/IC50(drug+4)MDR [5] | ERP value, vincristine + compound [6] | ERP = IC50(drug)MDR/IC50(drug+4)MDR [6] | ERP value, methotrexate + compound [7] | ERP = IC50(drug)MDR/IC50(drug+4)MDR [7] | ERP value, cisplatin + compound [8] | synergy score (in parentheses) (SW620 cells; drug cisplatin + additive) | synergy score (in parentheses) (SW620 cells; drug doxorubicin + additive) | synergy score (in parentheses) (SW620 cells; drug etoposide + additive) | synergy score (in parentheses) (SW620 cells; drug mitoxantrone + additive) | further results
1 | O=C1N/C(=C/c2cccc(-[c-]3cccc3)c2)C(=O)N2CCC[C@@H]12.[Fe+2].c1cc[cH-]c1 [(S,E)-4c] | 110 ± 10 | 95 ± 1.5 | 95 ± 4.5 | 93 ± 1.8 | 96 ± 4.6 | 96 ± 1.8 | 94 ± 0.8 | 94 ± 3.5 | 94 ± 1.1 | 0.87 | 0.87 | 0.81 | 0.81 | 1.16 | 1.16 | 3.45 | −4.66 | −1.89 | −4.80 | 0.86 | IC50 [1]: > 100 µM; IC50 [2]: > 100 µM; IC50 [3]: > 100 µM; IC50 [4]: > 100 µM; synergy score (in parentheses) (SW620 cells; drug methotrexate + additive): −4.31; most synergistic area score (SW620C cells): 8.86; synergy score (SW620C cells): 0.39; most synergistic area score (SW620E cells): 1.22; synergy score (SW620E cells): –4.06
2 | O=C1N/C(=C/c2ccccc2)C(=O)N2CCC[C@@H]12 [(S,E)-4e] | 117 ± 11 | 96 ± 2.4 | 95 ± 0.7 | 93 ± 0.3 | 95 ± 3.4 | 95 ± 2.9 | 95 ± 3.3 | 94 ± 0.7 | 96 ± 0.8 | 0.88 | 0.88 | 1.34 | 1.37 | 1.08 | 1.08 | 1.98 | −4.17 | −4.78 | −1.15 | −3.41 | Surviwal rate of MRC-5 at 10 microM (MRC-5 fibroblasts; MRC-5, 10 microM (xlsx)): 117_11; ERP = IC50(drug)MDR/IC50(drug+4)MDR [8]: 1.98; most synergistic area score (SW620C cells): 3.89; synergy score (SW620C cells): –2.78; most synergistic area score (SW620E cells): 0.19; synergy score (SW620E cells): –3.93
3 | O=C1N/C(=C\[c-]2cccc2)C(=O)N2CCC[C@@H]12.[Fe+2].c1cc[cH-]c1 [(S,Z)-4a] | 106 ± 13 | 96 ± 4.8 | 93 ± 1.1 | 93 ± 0.9 | 98 ± 2.3 | 94 ± 0.7 | 94 ± 2.5 | 98 ± 2.0 | 90 ± 3.1 | 5.61 | 5.61 | 6.00 | 6.00 | 1.17 | 1.17 | 4.86 | −4.74 | −4.15 | −4.45 | −1.66 | IC50 [1]: > 100 µM; IC50 [2]: > 100 µM; IC50 [3]: > 100 µM; IC50 [4]: > 100 µM; ERP = IC50(drug)MDR/IC50(drug+4)MDR [8]: 4.86; synergy score (in parentheses) (SW620 cells; drug methotrexate + additive): −5.99; synergy score (in parentheses) (SW620 cells; drug vincristine + additive): −0.36; most synergistic area score (SW620C cells): 4.33; synergy score (SW620C cells): –2.62; most synergistic area score (SW620E cells): 28.26; synergy score (SW620E cells): 12.44
4 | O=C1N/C(=C\c2ccccc2-[c-]2cccc2)C(=O)N2CCC[C@@H]12.[Fe+2].c1cc[cH-]c1 [(S,Z)-4b] | 92 ± 8.7 | 97 ± 1.0 | 87 ± 3.0 | 97 ± 0.8 | 96 ± 3.5 | 92 ± 0.9 | 95 ± 2.4 | 85 ± 1.0 | 85 ± 1.9 | 2.22 | 2.22 | 9.57 | 9.57 | 1.84 | 1.84 | 4.53 | −5.00 | −2.67 | −5.23 | −3.17 | IC50 [1]: > 100 µM; IC50 [2]: 52.2 µM; IC50 [3]: 48.8 µM; IC50 [4]: 44.9 µM; ERP = IC50(drug)MDR/IC50(drug+4)MDR [8]: 4.53; synergy score (in parentheses) (SW620 cells; drug methotrexate + additive): 3.26; synergy score (in parentheses) (SW620 cells; drug vincristine + additive): 5.77; most synergistic area score (SW620C cells): 0.00; synergy score (SW620C cells): –2.78; most synergistic area score (SW620E cells): 14.42; synergy score (SW620E cells): 3.32
